From publication PMC10512030, “Prolidase-proline oxidase axis is engaged in apoptosis induction by birch buds flavonol santin in endometrial adenocarcinoma cell line” (Frontiers in Molecular Biosciences, 2023)
Read-outs that look alike come from different tables or passages of the source.

Tests used:
[1] = tested on: cervical adenocarcinoma HeLa cells; experiment: Cell viability MTT assay, HeLa; assay type: cell-based, human
[2] = tested on: normal fibroblasts (dermal fibroblasts CCD25Sk); experiment: Cell viability MTT assay, fibroblasts; assay type: cell-based, human; details: for IC50: Fibroblasts, read-out: IC50 values ± SD in MTT assay
[3] = tested on: endometrial adenocarcinoma Ishikawa cells; experiment: Cell viability MTT assay, Ishikawa; assay type: cell-based, human; details: read-out: IC50 values ± SD in MTT assay
[4] = tested on: endometrial adenocarcinoma Ishikawa cells; experiment: Cell viability neutral red uptake assay, Ishikawa; assay type: cell-based, human; details: read-out: IC50 values ± SD in neutral red uptake assay
[5] = tested on: cervical adenocarcinoma HeLa cells; experiment: Cell viability neutral red uptake assay, HeLa; assay type: cell-based, human; details: read-out: IC50 values ± SD in neutral red uptake assay
[6] = tested on: normal fibroblasts (dermal fibroblasts CCD25Sk); experiment: Cell viability neutral red uptake assay, fibroblasts; assay type: cell-based, human; details: read-out: IC50 values ± SD in neutral red uptake assay
[7] = tested on: breast epithelial cells MCF 10A; experiment: Cell viability MTT assay, MCF 10A; assay type: cell-based, human; details: 48 h
[8] = tested on: cervical adenocarcinoma HeLa cells; details: cited from earlier work; for IC50: HeLa, ref Souza et al., 2017, read-out: IC50 determined by MTT assay
[9] = HeLa, 24 h, read-out: IC50 values ± SD in MTT assay
[10] = HeLa, 48 h, read-out: IC50 values ± SD in MTT assay
[11] = Homo sapiens, HeLa, 24 h, HeLa, 24 h, read-out: IC50 values ± SD in MTT assay
[12] = Homo sapiens, HeLa, 48 h, HeLa, 48 h, read-out: IC50 values ± SD in MTT assay

| Structure (SMILES) | IC50 ([3]; 24 h) [µM] | IC50 [1, 11] [µM] | IC50 [1, 12] [µM] | IC50 ([2]; Homo sapiens, Fibroblast, 24 h) [µM] | IC50 ([2]; Homo sapiens, Fibroblast, 48 h) [µM] | IC50 ([3]; Homo sapiens, 24 h) [µM] | IC50 ([3]; Homo sapiens, 48 h) [µM] | IC50 ([4]; Homo sapiens, 24 h) [µM] | IC50 ([4]; Homo sapiens, 48 h) [µM] | IC50 ([5]; Homo sapiens, 24 h) [µM] | IC50 ([5]; Homo sapiens, 48 h) [µM] | IC50 ([6]; Homo sapiens, Fibroblast, 24 h) [µM] | IC50 ([6]; Homo sapiens, Fibroblast, 48 h) [µM] | other results |
| --- | --- | --- | --- | --- | --- | --- | --- | --- | --- | --- | --- | --- | --- | --- |
| COc1ccc(-c2cc(=O)c3c(O)cc(OC)cc3o2)cc1 [apigenin 7,4′-O-dimethyl ether] | 26.2 ± 1.9 |  |  |  |  |  |  |  |  |  |  |  |  | IC50 [1, 9]: > 50 µM; IC50 [1, 10]: > 50 µM; effect on viability of fibroblasts [2]: significantly decreased viability; IC50 ([2]; 24 h): 18 ± 3.9 µM; IC50 ([2]; 48 h): 10.9 ± 4.6 µM; IC50 ([3]; 48 h): 20.9 ± 1.4 µM; IC50 ([4]; 24 h): > 50 µM; IC50 ([4]; 48 h): > 50 µM; IC50 ([5]; 24 h): > 50 µM; IC50 ([5]; 48 h): > 50 µM; IC50 ([6]; 24 h): 27.6 ± 2.8 µM; IC50 ([6]; 48 h): 7.6 ± 1.1 µM |
| O=c1cc(-c2ccc(O)cc2)oc2cc(O)cc(O)c12 [apigenin, reference compound] |  | ~30 | ~17.9 | > 50 | > 50 | > 50 | 33.1 ± 2.2 | > 50 | 38 ± 2.1 | ~27 | ~14.2 | > 50 | 48.6 ± 3.1 | IC50 ([7]; Homo sapiens): 14.5 ± 1.8 µM; IC50 ([8]; 24 h): ~38 µM; IC50 ([8]; 48 h): ~10 µM |
| COc1cc2oc(-c3ccc(O)cc3)cc(=O)c2c(O)c1OC [cirsimaritin] | > 50 | 36.6 ± 2.2 | 16 ± 1.9 | > 50 | > 50 | > 50 | 19.6 ± 2.6 | 34.2 ± 2.7 | 26.1 ± 2.1 | 17.5 ± 2.4 | 13.9 ± 1.4 | > 50 | > 50 |  |
| N.N.[Cl][Pt][Cl] [cisplatin, reference compound] | > 50 |  |  |  |  |  |  |  |  |  |  |  |  | IC50 [7]: 17.8 ± 2.3 µM; IC50 [1, 9]: 30 ± 2.7 µM; IC50 [1, 10]: 9.4 ± 1.3 µM; IC50 ([2]; 24 h): > 50 µM; IC50 ([2]; 48 h): 40.5 ± 4.3 µM; IC50 ([3]; 24 h, listed as Cisplatin): > 50 µM; IC50 ([3]; 48 h): 12 ± 2 µM; IC50 ([4]; 24 h): 28.1 ± 2 µM; IC50 ([4]; 48 h): 11.7 ± 2.2 µM; IC50 ([5]; 24 h): 20 ± 2.7 µM; IC50 ([5]; 48 h): 9.7 ± 2.3 µM; IC50 ([6]; 24 h): > 50 µM; IC50 ([6]; 48 h): 43.1 ± 3.5 µM |
| COc1ccc(-c2oc3cc(O)cc(O)c3c(=O)c2OC)cc1 [ermanin] |  | > 50 | 31.8 ± 2.4 | > 50 | > 50 | > 50 | > 50 | > 50 | 46.7 ± 3.2 | 39 ± 2.9 | 33.2 ± 1.9 | > 50 | > 50 |  |
| O=c1c(O)c(-c2ccc(O)cc2)oc2cc(O)cc(O)c12 [kaempferol] |  | > 50 | > 50 | > 50 | > 50 | > 50 | > 50 | > 50 | > 50 | > 50 | 38.3 ± 2.5 | > 50 | > 50 |  |
| COc1cc(O)c2c(=O)c(OC)c(-c3ccc(O)cc3)oc2c1 [kumatakenin] |  | > 50 | > 50 | 47 ± 5.6 | 42.9 ± 4.3 | 30.5 ± 2 | 24.2 ± 1.8 | > 50 | > 50 | > 50 | > 50 | 35.7 ± 2.5 | 15.3 ± 2.3 | effect on viability of fibroblasts ([2]; fibroblasts, MTT and neutral red uptake assays, 24 and 48 h): significantly decreased viability |
| O=c1cc(-c2ccc(O)c(O)c2)oc2cc(O)cc(O)c12 [luteolin, reference compound] |  | 42.8 ± 3.6 |  | > 50 | > 50 | > 50 | 25.9 ± 2.5 | > 50 | 31.6 ± 2.9 | 31.5 ± 2.5 | ~28 | > 50 | > 50 | IC50 ([7]; Homo sapiens): 8.4 ± 1.5 µM; reduction in HeLa cell viability ([8]; 20 μM luteolin, MTT assay, 48 h time point, ref Raina et al., 2021): about 50% |
| COc1ccc(C2CC(=O)c3c(O)cc(OC)cc3O2)cc1 (centres unmarked) [naringenin 7,4′-O-dimethyl ether] | > 50 |  |  |  |  |  |  |  |  |  |  |  |  | IC50 [1, 9]: > 50 µM; IC50 [1, 10]: > 50 µM; IC50 ([1]; cancer cells (HeLa and Ishikawa), MTT and neutral red uptake assays, 24 and 48 h, read-out: IC50, viability of cancer cells): > 50 µM; IC50 ([2]; 24 h): > 50 µM; IC50 ([2]; 48 h): > 50 µM; IC50 ([3]; 48 h): > 50 µM; IC50 ([4]; 24 h): > 50 µM; IC50 ([4]; 48 h): > 50 µM; IC50 ([5]; 24 h): > 50 µM; IC50 ([5]; 48 h): > 50 µM; IC50 ([6]; 24 h): > 50 µM; IC50 ([6]; 48 h): > 50 µM |
| O=c1c(O)c(-c2ccc(O)c(O)c2)oc2cc(O)cc(O)c12 [quercetin] |  | > 50 | > 50 | > 50 | > 50 | > 50 | 45.4 ± 4.1 | > 50 | 42.9 ± 3.8 | 39.1 ± 3.2 | 36.9 ± 2 | > 50 | > 50 |  |
| COc1cc(O)c2c(c1)O[C@H](c1ccc(O)cc1)CC2=O [sakuranetin] |  | > 50 | > 50 | > 50 | > 50 | > 50 | > 50 | > 50 | > 50 | > 50 | > 50 | > 50 | > 50 | IC50 ([1]; Homo sapiens, HeLa, cancer cells (HeLa and Ishikawa), MTT and neutral red uptake assays, 24 and 48 h, read-out: IC50, viability of cancer cells): > 50 µM |
